In patent US20060188903A1, “Implantation serine proteinases” (priority 2001, published 2006):

Key:
ISP2 mRNA = assay: Uterine ISP2 gene expression by in situ hybridization in hormone- or RU486-treated mice; type: in vivo, mouse; conditions: for induction of ISP2 gene expression: after ovariectomy without progesterone maintenance, up to 14 days; for maintenance of ISP2 gene expression: delayed implantation after ovariectomy
Protocol: All surgical procedures were carried out after the mice were anaesthetized with an i.p. injection of Avertin (2% (w/v) tribromoethanol; Aldrich Chemical Co. Milwaukee, Wis.). Ovariectomy was performed by dorsal-lateral incision (Hogan et al., 1994). Ovariectomized mice were allowed at least 1 wk for recovery before the induction of deciduomas. All steroid hormones including RU486 were dissolved in sesame oil and injected s.c. At each stage of the experiment, control mice were used which received only oil (0.1 ml/mouse) injections. The standard regimen for artificial induction of deciduomas (Finn, 1966) was modified to more closely mimic pseudo-pregnancy (Milligan, 1995). Here, the first progesterone treatment was started […] after exposure to oestrogen. This modified regimen consisted of 100 ng oestrogen daily starting on Day 0, and 1 mg progesterone plus 10 ng oestrogen from day three onward. Deciduomas were induced surgically on Day 5 (between 1400-1600 h) by injecting sesame oil (10 μl) into the lumen of one uterine horn from its oviductal tip. Injected and uninjected horns were collected 24, 48 or 72 hours later for histological sectioning and in situ hybridization analysis.
Delayed implantation was induced and maintained by ovariectomising mice on day 3 of pregnancy, followed by administration of progesterone (2 mg/mouse) on days 4 to 6. Subsequently, half these mice were treated with estrogen (25 ng/mouse) on the morning of the seventh day, while the other half received the normal progesterone injection. Mice were sacrificed 24 hours later for analysis by in situ hybridization.
The effect of steroids on uterine development in the absence of blastocysts was examined by ovariectomizing mice and treating them with hormone injections after a two week recovery period. They received injections of either progesterone (1 mg/mouse), estrogen (100 ng/mouse), or a combination of both (10 ng estrogen and 1 mg progesterone/mouse) for three days. Mice were then sacrificed on the morning of the fourth day. To further determine the importance of progesterone on ISP2 gene expression superovulated pregnant and pseudo-pregnant mice (Hogan et al., 1994) were treated with RU486 (400 μg/mouse) on the morning of the third day after a vaginal plug was detected. The mice were then sacrificed 24 hours later and their uterine horns were collected for in situ hybridization analysis.
Whole embryo RNA in situ hybridization using digoxigenin-labelled RNA probes was performed essentially as previously described (Rancourt and Rancourt, 1997). The ISP1 probe comprised the 478 bp RT-PCR subclone in pBSKS^+. The ISP2 probe also comprised a 478 by RT-PCR subclone in pBSKS^+. The antisense probes were synthesized using T3 polymerase after plasmid linearization with EcoRI. […]

Mouse Blastocysts = assay: In vitro blastocyst hatching after oligodeoxynucleotide administration; type: cell-based; conditions: for Percent Hatched over Time: 100 blastocysts; for effect on blastocyst hatching (in words): scored at 20, 30, 40 and 60 hours
Protocol: (§1) Morulae were collected from oviducts of superovulated, 2.5 day pregnant dams in M2 medium (Hogan et al., 1994). For hatching, morulae were cultured in microwells for approximately 24 hrs at 37° C., 5% CO2 in KSOMaa medium (Erbach et al., 1994). In embryo outgrowth, hatched blastocysts were cultured for an additional 48 hrs at 37° C., 5% CO2 in Dulbecco's Modified Eagle's Medium plus 5% (v/v) fetal bovine serum on microwells coated with extracellular matrix derived from 10% (v/v) Triton X-100-treated mouse embryo fibroblasts (Behrendtsen et al., 1995).
In antisense oligodeoxynucleotide studies, harvested blastocysts were placed in 0.001% (v/v) L-a-lysophosphatidylcholine for 60 seconds (Jones et al., 1997) and were transferred to microdrops equilibrated with 2.5 μM, 5 μM oligodeoxynucleotide or an equal volume of H2O (Behrendtsen et al., 1995). Two antisense oligodeoxynucleotides were designed against regions surrounding ISP1's initiation codon: AS1 (5′-[…]-3′; SEQ ID NO;13) situated upstream, AS2 (5′-[…]-3′; SEQ ID NO:14) lying downstream. A control oligodeoxynucleotide, SS1 (5′-[…]-3′; SEQ ID NO:15), represented the scrambled sense sequence surrounding the initiation codon. The oligodeoxynucleotides were designed using Oligo™ software and were synthesized and purified by Dr. Richard Pon, UC DNA Services (University of Calgary). Blastocysts were scored at 20, 30, 40, and 60 hours for progress in hatching. […] Following eight hours of treatment, some blastocysts were assayed for the presence of ISP1 transcripts using RT-PCR. Following 24 hours of treatment, some blastocysts were assayed for strypsin activity using histochemical staining. In outgrowth studies, blastocysts were allowed to hatch and then transferred to microdrops equilibrated with oligodeoxynucleotide or water. Progress in outgrowth was monitored over a period of 5 days.
A possible role for ISP1 in hatching was examined by determining whether ISP1 mRNA could be reduced in blastocysts by treatment with antisense oligodeoxynucleotides (Behrendtsen et al., 1995; Jones et al., 1997) and result in an alteration of the hatching process. Two antisense oligodeoxynucleotides were designed surrounding ISP1's initiation codon covering the region immediately upstream (AS1) and downstream (AS2). A control oligodeoxynucleotide (SS1) represented the scrambled sense sequence surrounding the initiation codon. Blastocysts were scored at 20, 30, 40, and 60 hours for progress in hatching.

ISP1 transcripts = assay: RT-PCR of ISP1 transcripts in oligodeoxynucleotide-treated blastocysts; type: cell-based, mouse; conditions: after eight hours of culture
Protocol: The presence of ISP1 transcripts in embryos and placentas was monitored using RT-PCR. Total RNA (1 μg) was reverse transcribed and amplified using ISP1 specific primers (ISP1 for 5′-[…]-3′; SEQ ID NO:9 and ISP1rev 5′-GTCAAAGATGGCCACAGC-3+: SEQ ID NO: 10) and forty rounds of thermal cycling (1 min at 94° C., 2 min at 60° C., and 2 min at 72° C.). The RT-PCR amplification of GAPDH (as a control for mRNA loading) is described elsewhere (Arcellana-Panlilio and Schultz, 1993). The predicted 175 and 380 bp amplification products were separated on a 2% (w/v) agarose gel.
(§2) In antisense oligodeoxynucleotide studies, harvested blastocysts were placed in 0.001% (v/v) L-a-lysophosphatidylcholine for 60 seconds (Jones et al., 1997) and were transferred to microdrops equilibrated with 2.5 μM, 5 μM oligodeoxynucleotide or an equal volume of H2O (Behrendtsen et al., 1995). Two antisense oligodeoxynucleotides were designed against regions surrounding ISP1's initiation codon: AS1 (5′-[…]-3′; SEQ ID NO;13) situated upstream, AS2 (5′-[…]-3′; SEQ ID NO:14) lying downstream. A control oligodeoxynucleotide, SS1 (5′-[…]-3′; SEQ ID NO:15), represented the scrambled sense sequence surrounding the initiation codon. […] Blastocysts were scored at 20, 30, 40, and 60 hours for progress in hatching. […] Progress in outgrowth was monitored over a period of 5 days.

strypsin = assay: Histochemical staining of strypsin activity in blastocysts; type: cell-based, mouse; conditions: 24 hours of treatment
Protocol: Whole embryo RNA in situ hybridization using digoxigenin-labelled RNA probes was performed essentially as previously described (Rancourt and Rancourt, 1997). The ISP1 probe comprised the 478 bp RT-PCR subclone in pBSKS^+. The ISP2 probe also comprised a 478 by RT-PCR subclone in pBSKS^+. The antisense probes were synthesized using T3 polymerase after plasmid linearization with EcoRI. The sense probes were synthesized using T7 polymerase after plasmid linearization with BamHI. All experiments were performed with the sense RNA probe in parallel to detect non-specific hybridization. Histochemical staining of strypsin activity was performed essentially as outlined previously (Perona and Wassarman, 1986). Embryos were collected as early blastocysts in M2 medium, and were lightly fixed in 1.25% (w/v) glutaraldehyde in 0.25M sucrose, 50 mM sodium phosphate (pH7.5) for five min at 4° C. Following fixation, the blastocysts were placed in 50 mM sodium phosphate (pH7.5) containing the substrate N-α-benzoyl-DL-arginine β-napthylamide (0.56 mM; Sigma) and Fast Garnet GBC salt (1.86 mM; Sigma), were incubated for 5 min at room temperature and washed in 50 mM sodium phosphate (pH7.5).
as §2

hatched blastocysts = assay: Blastocyst outgrowth on extracellular matrix after hatching; type: cell-based, mouse; conditions: prehatched blastocysts in culture with oligodeoxynucleotide
Protocol: as §1, §2

Row | Compound | induction of ISP2 gene expression (ISP2 mRNA) | maintenance of ISP2 gene expression (ISP2 mRNA) | Percent Hatched over Time (Mouse Blastocysts; 2.5 µM, 20 hours) [%] | Percent Hatched over Time (Mouse Blastocysts; 2.5 µM, 30 hours) [%] | Percent Hatched over Time (Mouse Blastocysts; 2.5 µM, 40 hours) [%] | Percent Hatched over Time (Mouse Blastocysts; 2.5 µM, 60 hours) [%] | Percent Hatched over Time (Mouse Blastocysts; 5.0 µM, 20 hours) [%] | Percent Hatched over Time (Mouse Blastocysts; 5.0 µM, 30 hours) [%] | Percent Hatched over Time (Mouse Blastocysts; 5.0 µM, 40 hours) [%] | Percent Hatched over Time (Mouse Blastocysts; 5.0 µM, 60 hours) [%] | effect on blastocyst hatching (in words) (Mouse Blastocysts) | reduction of accumulation of ISP1 transcripts (ISP1 transcripts) | strypsin activity at the abembryonic pole (histochemical) (strypsin) | strypsin activity at the abembryonic pole (histochemical) (strypsin; listed as antisense oligodeoxynucleotide) | time to adhere to extracellular matrix (hatched blastocysts) [days] | ISP1 transcript levels (in words) (ISP1 transcripts; versus untreated controls)
1 | estrogen | did not have a stimulatory effect | not observed |  |  |  |  |  |  |  |  |  |  |  |  |  | 
2 | AS1: antisense oligodeoxynucleotide upstream of ISP1's initiation codon, 5′-TCTAACTACCGTCTAACAACG-3′; SEQ ID NO:13 (DNA, backbone and methylation of C not given here) |  |  | 0 | 0 | 16 | 37 | 10 | 10 | 20 | 20 | interfered specifically with blastocyst hatching | at least 100 fold | reduced strypsin activity | strypsin activity was absent | 5 | 
3 | SS1: control oligodeoxynucleotide, scrambled sense sequence surrounding the ISP1 initiation codon, 5′-ACGGTAGTTAGAAGAGTTCT-3′; SEQ ID NO:15 (DNA, backbone and methylation of C not given here) [reference compound] |  |  | 10 | 16 | 58 | 90 | 10 | 39 | 61 | 77 |  |  | localized strypsin activity was observed |  | 2 | significant reduction was not observed
4 | AS2: antisense oligodeoxynucleotide downstream of ISP1's initiation codon, 5′-GAACTCTTCTAACTACCGTCT-3′; SEQ ID NO:14 (DNA, backbone and methylation of C not given here) |  |  | 0 | 20 | 35 | 40 | 0 | 5 | 35 | 45 | interfered specifically with blastocyst hatching |  |  |  |  | 
5 | CC(=O)[C@H]1CC[C@H]2[C@@H]3CCC4=CC(=O)CC[C@]4(C)[C@H]3CC[C@]12C [progesterone] | could be induced | normal ISP2 expression was observed |  |  |  |  |  |  |  |  |  |  |  |  |  | 
